The test system of assay [1] is primary human mast cells (human skin). Nature of the assay: Histamine release assay, anti-IgE induced, primary human mast cells. The assay is classed as cell-based. Particulars: Mast cell, maximal effect at 25 μM, not dependent on pre-incubation time, read-out: maximal inhibitory effect on IgE-induced histamine release. As for the experimental part:
Tissue mast cells were isolated from human skin obtained during cosmetic surgery. Use of human skin was conducted according to the Declaration of Helsinki Principles and was approved by the Institutional Review Board of the Charité—Universitätsmedizin Berlin. For isolation of mast cells, the epidermis was enzymatically detached by an overnight incubation at 4° C. with dispase at a concentration of 1 mg/ml. The remaining dermis was dispersed by incubation with a mix of collagenase I and hyaluronidase for 1 h at 37° C. Dispersion was repeated three times, and the collected cells were washed. […] The final mast cell purity was >90% as measured by Toluidin blue staining. The viability of mast cells was >95% as assessed by Trypan blue staining (Grützkau et al 2000, Artuc et al 2002). The quantification of histamine levels was achieved using an automated histamine-analyser system (Firm Borgwelt Technik). The wavelength of the excitation was 355-360 nm and the emission wavelength of fluorescence measurement was 450-460 nm. The intensity of fluorescence was directly proportional to the concentration of histamine in the samples. The amount of released histamine was calculated according to the following formula: net histamine release=(release−blank)×(100/complete). […]

In assay [2] the test system is allergic volunteers with known type-1-sensitizations. The experiment in a line: Prick test with patient-specific allergen after topical pre-treatment, wheal size. The assay is classed as in vivo, human. The note with it: n = 5; for allergen-prick wheal ± standard error: miltefosine pre-treatment (6% solution, topical, 2 h before); for allergen-prick % inhibition ± standard error (by miltefosine pre-treatment): versus placebo pre-treatment. The source says: To provide proof of concept that miltefosine inhibits IgE-dependent human mast cell stimulation and mediator release in vivo we performed a study on selected allergic volunteers with known type-1-sensitizations (n=5). The volunteers were subjected to standard prick testing with their known allergens on both forearms as well as with positive (histamine) and negative (saline) controls (Table 3). Using a double blind, placebo controlled approach, one forearm of each test person was pre-treated with topical miltefosine (6% solution). The contralateral side was subjected to a pre-treatment with a placebo solution (saline), both two hours prior to the prick test. Subsequently, developing skin symptoms were measured with high-quality standardized methods, i.e. macroscopic standard prick test-evaluation (Heinzerling et al 2005), volumetric imaging, thermography, and digital time lapse photography (DTLP). Volunteers known to suffer from permanent severe diseases, especially those affecting the immune system, were excluded from the study. None of the volunteers took any oral […] or leukotriene antagonists within 7 days prior to the beginning of the study. Moreover, none of them took any oral or depot corticosteroids or other immunosuppressive drugs within 21 days before the testing. The course of developing lesions (wheal and erythema size) was assessed macroscopically by measuring vertical and perpendicular diameter of wheal and erythema size. Subsequently, the sum of both diameters was divided by two. In addition, volumetric and thermographic imaging as well as DTLP was performed before and at defined time points after prick testing. To assess the course of developing prick test lesions, wheal size was assessed macroscopically by measuring the diameters at distinct time points after prick testing.

Results on 1 compound are retold here after US8394785B2, “Methods for the treatment and amelioration of urticaria” (Jado Technologies GmbH, priority 2005, dated 2013).

The structures appear in SMILES notation.

On to `CCCCCCCCCCCCCCCCOP(=O)([O-])OCC[N+](C)(C)C` [Compound 3, 1-hexadecylphosphoryl-choline], for which the inhibition at 25 µM in assay [1] came to 35%. Moreover, the “allergen-prick wheal ± standard error” value in assay [2] (15 minutes after prick testing) turned out to be 4.20 ± 1.36 mm; in assay [2] (20 minutes after prick testing), 4.40 ± 1.34 mm; in assay [2] (30 minutes after prick testing) it was 2.90 ± 1.36 mm. Besides, the entries for the “allergen-prick % inhibition ± standard error (by miltefosine pre-treatment)” value in assay [2] (15 minutes after prick testing), in assay [2] (20 minutes after prick testing) and in assay [2] (30 minutes after prick testing) were 35.0 ± 16.6%, 34.8 ± 18.0% and 51.8 ± 22.8%, respectively.
